According to ChEMBL document CHEMBL6074624, “FDA-approved small molecule kinase inhibitors for cancer treatment (2001-2015): Medical indication, structural optimization, and binding mode Part I” (Bioorg Med Chem, 2024):
pEC50, pIC50, pKi: −log10 of the molar value. Values after ≈ are worked out from the molar mass of the structure shown.

Key:
HT-29 [1] = assay: Antiproliferative activity against human HT-29 cells assessed as reduction in cell viability after 72 hrs by MTS assay; assay type: functional, cell-based; details: HT-29, 72 h
ACHN = assay: Antiproliferative activity against human ACHN cells assessed as reduction in cell viability measured after 48 hrs by SRB assay; assay type: functional, cell-based
[2] = Inhibition of PDGFR (unknown origin) in NIH3T3 cells; assay type: cell-based, Homo sapiens
[3] = target: T1, Vascular endothelial growth factor receptor 2 (Homo sapiens, UniProt P35968); assay: Inhibition of VEGFR-2 (unknown origin) expressed in NIH3T3 cells assessed as reduction in VEGFA induced protein phosphorylation; assay type: cell-based
T1 sequence (P35968 whole entry): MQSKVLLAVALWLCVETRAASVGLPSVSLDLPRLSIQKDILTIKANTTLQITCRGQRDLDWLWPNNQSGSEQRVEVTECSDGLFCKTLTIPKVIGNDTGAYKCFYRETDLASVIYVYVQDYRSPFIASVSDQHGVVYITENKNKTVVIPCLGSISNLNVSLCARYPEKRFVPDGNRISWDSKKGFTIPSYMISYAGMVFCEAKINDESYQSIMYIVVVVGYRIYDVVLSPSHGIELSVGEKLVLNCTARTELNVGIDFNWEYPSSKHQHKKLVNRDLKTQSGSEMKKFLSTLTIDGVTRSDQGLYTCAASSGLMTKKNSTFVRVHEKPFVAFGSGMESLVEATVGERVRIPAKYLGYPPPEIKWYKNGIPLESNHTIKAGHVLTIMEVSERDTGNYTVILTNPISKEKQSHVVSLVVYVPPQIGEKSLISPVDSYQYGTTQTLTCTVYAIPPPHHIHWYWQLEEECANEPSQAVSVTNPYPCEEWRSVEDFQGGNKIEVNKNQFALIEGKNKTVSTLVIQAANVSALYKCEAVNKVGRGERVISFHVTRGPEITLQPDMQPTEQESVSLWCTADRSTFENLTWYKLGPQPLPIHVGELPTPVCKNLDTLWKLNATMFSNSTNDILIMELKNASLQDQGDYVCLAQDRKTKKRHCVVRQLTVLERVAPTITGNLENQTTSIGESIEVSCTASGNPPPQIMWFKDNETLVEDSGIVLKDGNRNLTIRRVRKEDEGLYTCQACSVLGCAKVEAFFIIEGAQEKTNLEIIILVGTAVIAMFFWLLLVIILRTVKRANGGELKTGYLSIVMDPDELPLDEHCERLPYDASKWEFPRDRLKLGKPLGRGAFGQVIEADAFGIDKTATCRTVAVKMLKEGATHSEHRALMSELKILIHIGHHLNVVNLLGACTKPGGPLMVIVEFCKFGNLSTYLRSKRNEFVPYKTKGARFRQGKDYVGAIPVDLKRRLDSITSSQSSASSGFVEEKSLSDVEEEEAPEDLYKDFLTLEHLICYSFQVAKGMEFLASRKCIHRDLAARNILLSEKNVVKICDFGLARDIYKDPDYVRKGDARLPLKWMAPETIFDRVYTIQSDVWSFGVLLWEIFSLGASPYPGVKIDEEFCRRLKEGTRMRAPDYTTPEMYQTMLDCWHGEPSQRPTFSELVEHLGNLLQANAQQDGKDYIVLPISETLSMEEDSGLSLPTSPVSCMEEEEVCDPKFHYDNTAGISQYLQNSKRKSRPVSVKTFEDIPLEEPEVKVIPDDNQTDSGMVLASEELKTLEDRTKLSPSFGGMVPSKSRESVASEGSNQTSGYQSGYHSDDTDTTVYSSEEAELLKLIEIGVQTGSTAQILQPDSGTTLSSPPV

[4] = target: T1, Vascular endothelial growth factor receptor 2; assay: Inhibition of VEGFR2 (unknown origin) phosphorylation in HUVEC cells; assay type: cell-based
[5] = Oral bioavailability in Sprague-Dawley rat at 5 mg/kg; assay type: ADME, organism-based; details: in vivo
[6] = Half life in dog at 5 mg/kg, iv; assay type: ADME, organism-based, Canis lupus familiaris; details: in vivo
Calu-6 [7] = assay: Antitumor activity against human Calu-6 cells xenografted in athymic nude mouse assessed as tumor growth inhibition at 100 mg/kg, po administered once daily for 21 days relative to control; assay type: functional; set-up: scale not given: the % may be the effect or the level left; details: time 21 day
[8] = Oral bioavailability in dog at 5 mg/kg; assay type: ADME, organism-based, Canis lupus familiaris; details: in vivo
[9] = Half life in Sprague-Dawley rat at 5 mg/kg, iv by LC-MS analysis; assay type: ADME, organism-based; details: in vivo
SK-MEL-28 = assay: Antiproliferative activity against human SK-MEL-28 cells assessed as reduction in cell growth after 3 days by MTT assay; assay type: functional, cell-based; details: SK-MEL-28, 72 h
[10] = target: T1, Vascular endothelial growth factor receptor 2; assay: Binding affinity to VEGFR-2 (unknown origin) assessed as inhibition constant
[11] = target: Epidermal growth factor receptor (Homo sapiens, UniProt P00533)
KB = assay: cells; details: Homo sapiens, 72 h
HT-29 [12] = assay: Antitumor activity against human HT-29 cells xenografted in athymic nude mouse assessed as tumor growth inhibition at 25 mg/kg, ip administered once daily for 21 days relative to control; assay type: functional; details: HT-29, 504 h, time 21 day, read-out: TGI
HT-29 [13] = assay: Antitumor activity against human HT-29 cells xenografted in athymic nude mouse assessed as tumor growth inhibition at 50 mg/kg, po administered once daily for 21 days relative to control; assay type: functional; details: HT-29, 504 h, time 21 day, read-out: TGI
[14] = target: T2, Proto-oncogene tyrosine-protein kinase Src (Homo sapiens, UniProt P12931)
T2 sequence (P12931 2-536 limits assumed): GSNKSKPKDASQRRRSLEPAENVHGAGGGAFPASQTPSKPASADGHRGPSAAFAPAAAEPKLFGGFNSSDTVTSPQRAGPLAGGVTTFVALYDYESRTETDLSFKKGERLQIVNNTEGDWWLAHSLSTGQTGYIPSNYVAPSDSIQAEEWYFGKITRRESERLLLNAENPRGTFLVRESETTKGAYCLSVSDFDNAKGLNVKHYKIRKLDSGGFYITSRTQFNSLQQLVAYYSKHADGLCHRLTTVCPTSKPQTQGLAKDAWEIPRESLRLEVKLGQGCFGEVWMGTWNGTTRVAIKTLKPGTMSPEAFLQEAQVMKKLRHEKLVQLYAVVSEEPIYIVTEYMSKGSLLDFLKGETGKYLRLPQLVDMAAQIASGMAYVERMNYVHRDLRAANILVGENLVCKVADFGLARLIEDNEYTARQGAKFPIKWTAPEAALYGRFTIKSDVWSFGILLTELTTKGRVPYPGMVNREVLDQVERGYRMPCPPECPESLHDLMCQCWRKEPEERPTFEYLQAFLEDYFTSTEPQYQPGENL

PC-9 [15] = assay: Antiproliferative activity against human PC-9 cells assessed as reduction in cell growth incubated for 72 hrs by MTT assay; assay type: functional, cell-based; details: PC-9, 72 h
NCI-H1975 [16] = assay: Antiproliferative activity against human NCI-H1975 cells assessed as reduction in cell viability after 24 hrs by MTT assay; assay type: functional, cell-based; details: NCI-H1975, 24 h
Calu-3 = assay: Growth inhibition of human Calu-3 cells; assay type: functional
PC-9 [17] = assay: Antiproliferative activity against human PC-9 cells harboring EGFR L858R mutant assessed as reduction in cell viability measured after 72 hrs by SRB assay; assay type: functional, cell-based; details: PC-9, 72 h
PC-9 [18] = assay: Growth inhibition of human PC-9 cells; assay type: functional
[19] = Aqueous solubility of compound at pH 7.4 by LC-MS/MS analysis; assay type: physicochemical; details: buffer
[20] = target: Voltage-gated inwardly rectifying potassium channel KCNH2 (Homo sapiens, UniProt Q12809); assay: Inhibition of hERG; assay type: toxicity
Sequence of Voltage-gated inwardly rectifying potassium channel KCNH2 (Q12809 whole entry): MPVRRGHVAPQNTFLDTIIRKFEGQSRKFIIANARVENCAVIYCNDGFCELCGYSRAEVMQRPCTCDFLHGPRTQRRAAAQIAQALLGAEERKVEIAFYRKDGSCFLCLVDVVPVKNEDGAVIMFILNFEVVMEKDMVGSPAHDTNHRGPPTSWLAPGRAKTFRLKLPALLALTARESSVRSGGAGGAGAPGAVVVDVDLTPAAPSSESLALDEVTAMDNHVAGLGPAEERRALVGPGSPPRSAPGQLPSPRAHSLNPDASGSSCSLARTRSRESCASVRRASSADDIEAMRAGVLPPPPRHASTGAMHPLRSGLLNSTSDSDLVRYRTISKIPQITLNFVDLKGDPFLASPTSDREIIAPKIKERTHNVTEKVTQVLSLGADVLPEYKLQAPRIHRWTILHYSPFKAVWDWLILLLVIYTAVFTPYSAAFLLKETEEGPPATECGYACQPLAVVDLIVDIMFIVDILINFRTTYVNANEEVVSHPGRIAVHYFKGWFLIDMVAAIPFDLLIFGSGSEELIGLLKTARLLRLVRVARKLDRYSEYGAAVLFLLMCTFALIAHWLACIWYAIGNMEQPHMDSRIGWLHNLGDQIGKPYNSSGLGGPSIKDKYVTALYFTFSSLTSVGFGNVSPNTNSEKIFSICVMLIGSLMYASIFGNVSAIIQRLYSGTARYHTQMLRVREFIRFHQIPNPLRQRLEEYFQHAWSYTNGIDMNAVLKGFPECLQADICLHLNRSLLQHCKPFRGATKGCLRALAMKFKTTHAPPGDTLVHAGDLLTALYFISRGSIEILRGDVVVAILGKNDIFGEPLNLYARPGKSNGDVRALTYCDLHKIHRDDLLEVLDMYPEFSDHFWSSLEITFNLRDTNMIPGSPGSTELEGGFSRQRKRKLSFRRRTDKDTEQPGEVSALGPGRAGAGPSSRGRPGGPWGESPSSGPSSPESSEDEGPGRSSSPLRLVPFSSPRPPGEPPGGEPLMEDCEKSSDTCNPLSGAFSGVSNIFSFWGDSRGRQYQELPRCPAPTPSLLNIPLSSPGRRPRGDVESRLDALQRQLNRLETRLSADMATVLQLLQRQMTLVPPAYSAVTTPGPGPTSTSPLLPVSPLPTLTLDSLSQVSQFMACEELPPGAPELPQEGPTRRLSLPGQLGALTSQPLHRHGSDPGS

NCI-H1975 [21] = assay: Growth inhibition of human NCI-H1975 cells; assay type: functional
[22] = Anticancer activity against human NCI-H1975 cells harboring EGFR L858R/T790M mutant assessed as reduction in cell viability measured after 72 hrs by MTT assay; assay type: functional, cell-based; details: NCI-H1975, 72 h
786-0 = assay: Antitumor activity against human 786-0 cells xenografted in nu/nu CD-1 mouse assessed as reduction in tumor growth at 10 mg/kg, po administered once daily for 21 days relative to control; assay type: functional; details: 786-0, 504 h, time 21 day, read-out: TGI
COLO 205 = assay: Antitumor activity against human COLO 205 cells xenografted in nu/nu CD-1 mouse assessed as reduction in tumor growth at 100 mg/kg, po administered once daily for 14 days relative to control; assay type: functional; details: COLO 205, 336 h, time 14 day, read-out: TGI
MDA-MB-231 [23] = assay: Antitumor activity against human MDA-MB-231 cells xenografted in nu/nu CD-1 mouse assessed as reduction in tumor growth at 3 mg/kg, po administered once daily for 14 days relative to control; assay type: functional; details: MDA-MB-231, 336 h, time 14 day, read-out: TGI
K562 = assay: Antiproliferative activity against human K562 cells assessed as reduction in cell growth; assay type: functional, cell-based
[24] = target: Hepatocyte growth factor receptor (Homo sapiens, UniProt P08581); assay: Inhibition of c-Met (unknown origin)
[25] = target: T3, Tyrosine-protein kinase Lck (Homo sapiens, UniProt P06239); assay: Inhibition of human LCK
T3 sequence (P06239 whole entry): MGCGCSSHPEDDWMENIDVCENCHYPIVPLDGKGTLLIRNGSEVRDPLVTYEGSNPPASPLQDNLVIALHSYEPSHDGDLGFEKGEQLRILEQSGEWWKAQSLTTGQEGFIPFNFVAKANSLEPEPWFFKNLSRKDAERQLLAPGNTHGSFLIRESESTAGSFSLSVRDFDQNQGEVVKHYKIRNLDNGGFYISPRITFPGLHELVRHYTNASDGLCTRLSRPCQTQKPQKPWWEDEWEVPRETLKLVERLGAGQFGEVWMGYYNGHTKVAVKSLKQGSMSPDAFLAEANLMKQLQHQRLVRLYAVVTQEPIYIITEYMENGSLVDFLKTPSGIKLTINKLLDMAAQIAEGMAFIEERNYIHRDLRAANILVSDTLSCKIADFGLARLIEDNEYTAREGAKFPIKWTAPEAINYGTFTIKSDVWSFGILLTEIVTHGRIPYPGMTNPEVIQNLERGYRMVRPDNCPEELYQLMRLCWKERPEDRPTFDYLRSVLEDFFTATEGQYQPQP

Calu-6 [26] = assay: Antitumor activity against human Calu-6 cells xenografted in athymic nude mouse assessed as tumor growth inhibition at 50 mg/kg, po administered once daily for 21 days relative to control; assay type: functional; details: Calu-6, 504 h, time 21 day, read-out: TGI
[27] = Solubility in PBS at pH 7.4 incubated for 24 hrs by HPLC analysis; assay type: physicochemical
[28] = Oral bioavailability in rat at 5 mg/kg measured for 24 hrs by LC-MS/MS analysis; assay type: ADME, organism-based; details: in vivo
Calu-6 [29] = assay: Antitumor activity against human Calu-6 cells xenografted in athymic nude mouse assessed as tumor growth inhibition at 12.5 mg/kg, po administered once daily for 21 days relative to control; assay type: functional; details: Calu-6, 504 h, time 21 day, read-out: TGI
[30] = Half life in rat at 5 mg/kg, po; assay type: ADME, organism-based; details: in vivo
Calu-6 [31] = assay: Antitumor activity against human Calu-6 cells xenografted in athymic nude mouse assessed as tumor growth inhibition at 25 mg/kg, po administered once daily for 21 days relative to control; assay type: functional; details: Calu-6, 504 h, time 21 day, read-out: TGI
[32] = target: Tyrosine-protein kinase Yes (Homo sapiens, UniProt P07947); assay: Inhibition of YES1 (unknown origin)
Sequence of Tyrosine-protein kinase Yes (P07947 whole entry): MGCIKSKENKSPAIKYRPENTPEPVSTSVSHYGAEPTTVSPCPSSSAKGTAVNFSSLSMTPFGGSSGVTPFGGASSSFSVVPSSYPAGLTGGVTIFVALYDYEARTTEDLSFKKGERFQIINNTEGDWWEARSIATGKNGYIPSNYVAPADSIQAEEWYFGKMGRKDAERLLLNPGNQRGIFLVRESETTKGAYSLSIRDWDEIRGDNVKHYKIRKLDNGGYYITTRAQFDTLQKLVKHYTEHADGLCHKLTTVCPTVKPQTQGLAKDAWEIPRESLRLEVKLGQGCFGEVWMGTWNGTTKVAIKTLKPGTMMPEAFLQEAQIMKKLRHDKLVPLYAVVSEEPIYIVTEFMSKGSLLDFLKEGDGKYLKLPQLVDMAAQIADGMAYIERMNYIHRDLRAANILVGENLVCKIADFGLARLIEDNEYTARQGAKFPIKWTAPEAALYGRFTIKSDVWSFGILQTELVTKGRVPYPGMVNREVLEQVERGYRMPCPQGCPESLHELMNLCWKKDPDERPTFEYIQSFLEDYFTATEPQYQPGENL

[33] = target: Mast/stem cell growth factor receptor Kit (Homo sapiens, UniProt P10721); assay: Inhibition of c-Kit (unknown origin)
Sequence of Mast/stem cell growth factor receptor Kit (P10721 whole entry): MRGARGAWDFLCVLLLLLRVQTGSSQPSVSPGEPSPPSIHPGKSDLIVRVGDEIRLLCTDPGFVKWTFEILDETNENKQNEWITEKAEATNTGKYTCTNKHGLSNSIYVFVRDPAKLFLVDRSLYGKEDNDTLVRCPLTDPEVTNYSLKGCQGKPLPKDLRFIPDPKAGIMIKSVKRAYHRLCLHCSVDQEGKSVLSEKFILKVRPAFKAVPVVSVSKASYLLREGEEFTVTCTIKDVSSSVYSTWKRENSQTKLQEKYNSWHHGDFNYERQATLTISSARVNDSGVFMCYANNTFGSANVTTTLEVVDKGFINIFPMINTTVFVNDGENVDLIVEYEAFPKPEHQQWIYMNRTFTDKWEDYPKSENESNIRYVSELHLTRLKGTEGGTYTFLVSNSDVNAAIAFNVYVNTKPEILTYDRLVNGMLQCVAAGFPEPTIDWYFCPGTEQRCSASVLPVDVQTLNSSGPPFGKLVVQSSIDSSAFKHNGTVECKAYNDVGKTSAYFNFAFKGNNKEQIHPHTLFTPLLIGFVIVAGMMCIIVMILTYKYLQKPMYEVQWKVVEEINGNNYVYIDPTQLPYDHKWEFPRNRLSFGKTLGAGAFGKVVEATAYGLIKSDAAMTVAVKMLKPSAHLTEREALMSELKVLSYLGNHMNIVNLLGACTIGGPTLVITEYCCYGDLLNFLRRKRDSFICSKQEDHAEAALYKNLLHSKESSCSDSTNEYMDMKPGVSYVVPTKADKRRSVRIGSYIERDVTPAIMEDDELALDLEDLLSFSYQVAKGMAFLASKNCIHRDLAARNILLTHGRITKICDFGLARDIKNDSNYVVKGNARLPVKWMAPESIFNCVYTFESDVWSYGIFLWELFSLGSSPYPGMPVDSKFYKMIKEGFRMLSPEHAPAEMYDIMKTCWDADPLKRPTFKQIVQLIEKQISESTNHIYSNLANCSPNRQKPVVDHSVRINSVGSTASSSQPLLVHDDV

[34] = target: T2, Proto-oncogene tyrosine-protein kinase Src; assay: Inhibition of SRC (unknown origin)
MDA-MB-231 [35] = assay: Antiproliferative activity against human MDA-MB-231 cells; assay type: functional, cell-based
[36] = target: T3, Tyrosine-protein kinase Lck
PC-3 = assay: Antiproliferative activity against human PC-3 cells; assay type: functional, cell-based

For `Cn1c(=O)cc(Nc2ccc(Br)cc2)c2c(=O)n(C3CC3)c(=O)n(-c3ccccc3)c21`, the pIC50 (HT-29 [1]) was 7.00 and the pIC50 (ACHN) was 5.90.
In the case of `Cc1c[nH]c(/C=C2\C(=O)Nc3ccccc32)c1CCC(=O)O`, the pIC50 [2] was 4.22 and the pIC50 [3] was 6.40.
Compound `COc1cc2c(Nc3ccc(Br)cc3F)ncnc2cc1OCCn1ccnn1` [ZD-4190 FREE BASE] has a pIC50 [4] of 7.30, a bioavailability [5] of over 80% and a half-life [6] of 1.1 h. For the same compound, the Activity (Calu-6 [7]) was 75%, the bioavailability [8] was under 5% and the half-life [9] was 1.3 h.
For `CC(=O)N1CCN(c2ccc(Nc3nccc(-c4sc(C(C)C)nc4-c4cccc(NS(=O)(=O)c5ccccc5)c4)n3)cn2)CC1`, the pEC50 (SK-MEL-28) was 7.62.
With `COc1cc(/C=C/c2cc(/C=C/c3ccc(O)c(OC)c3)[nH]n2)ccc1O` [CURCUMIN PYRAZOLE] the pKi [10] was 5.29.
For `Cc1cccc(Nc2ncnc3ccc(N)cc23)c1`, the pIC50 [11] was 7.30 and the pIC50 (KB) was 6.00.
With `Cn1c(Nc2ccccc2)c2c(=O)n(C3CC3)c(=O)n(-c3ccc(Br)cc3)c2cc1=O` the pIC50 (HT-29 [1]) was under 6.00 and the pIC50 (ACHN) was over 5.52.
Compound `COc1cc(Nc2c(C#N)cnc3cc(OCCCN4CCN(C)CC4)c(OC)cc23)c(Cl)cc1Cl` [BOSUTINIB] has an inhibition in vivo at 25 mg/kg (HT-29 [12]) of 44% and an inhibition in vivo at 50 mg/kg (HT-29 [13]) of 35%.
Work on `Cn1c(=O)cc(Nc2ccc(Cl)cc2)c2c(=O)n(-c3ccccc3)c(=O)n(-c3ccccc3)c21` yielded a pIC50 (HT-29 [1]) of 6.00 and a pIC50 (ACHN) of 5.32.
For `Cc1ccc(NC(=O)c2cc(C(C)(C)C)on2)cc1/C=C/n1cnc2c(NC3CC3)ncnc21`, the pIC50 [14] was 4.81.
With `Cn1c(=O)cc(Nc2ccc(Br)cc2F)c2c(=O)n(C3CC3)c(=O)n(-c3ccccc3)c21` the pIC50 (HT-29 [1]) was 7.82 and the pIC50 (ACHN) was 6.49.
`C=CC(=O)Nc1cccc(Nc2ncc(Cl)c(-c3c[nH]c4ccccc34)n2)c1` showed a pIC50 (PC-9 [15]) of 7.70 and a pIC50 (NCI-H1975 [16]) of 7.10.
Work on `C=CC(=O)Nc1cc(Nc2ncc(Cl)c(-c3cnn4ccccc34)n2)c(OC)cc1C1CC(N(C)C)C1` (centres undefined) yielded a GI50 (Calu-3) of 846 nM, a pIC50 (PC-9 [17]) of 7.68 and a GI50 (PC-9 [18]) of 19 nM. For the same compound, the solubility [19] was 43 µM (≈ 22.3 µg/mL), the pIC50 [20] was 5.40 and the GI50 (NCI-H1975 [21]) was 17 nM. For the same compound, the pIC50 [22] was 8.40.
`CNC(=O)c1cc(Oc2ccc(NC(=O)Nc3ccc(Cl)c(C(F)(F)F)c3)c(F)c2)ccn1` [REGORAFENIB] gave an inhibition in vivo at 10 mg/kg (786-0) of over 90%, an inhibition in vivo at 100 mg/kg (COLO 205) of 75% and an inhibition in vivo at 3 mg/kg (MDA-MB-231 [23]) of 81%.
`COc1cc2nccc(Nc3ccc(NC(=S)NC(=O)Cc4ccccc4)cc3F)c2cc1OC` showed a pIC50 (K562) of 7.70 and a pIC50 [24] of 6.92.
Work on `Cc1cccc(Cl)c1NC(=O)c1ccc2nc(Nc3cccc(NCCO)n3)sc2c1` yielded a pIC50 [25] of 6.30.
For `CCN(CC)CCNC(=O)c1c(C)[nH]c(/C=C2\C(=O)Nc3ccccc32)c1C`, the pIC50 [2] was 7.00.
`Cc1ccc(NC(=O)c2cc(C(F)(F)F)ccn2)cc1C#Cn1cnc2c(NC3CC3)ncnc21` gave a pIC50 [14] of 6.28.
With `COc1cc2/c(=N/c3ccc(Br)cc3F)nc[nH]c2cc1OCC1CCN(C)CC1` [VANDETANIB] the inhibition in vivo at 50 mg/kg (Calu-6 [26]) was 67%, the solubility at 24 h [27] was 330 µM (≈ 157 µg/mL) and the bioavailability [28] was over 50%. The inhibition in vivo at 12.5 mg/kg (Calu-6 [29]) was 36%, the Activity (Calu-6 [7]) was 79% and the half-life [30] was 15 h. For the same compound, the inhibition in vivo at 25 mg/kg (Calu-6 [31]) was 51%.
Work on `Cc1cc(Nc2ncc(C(=O)Nc3c(C)cccc3Cl)s2)nc(C)n1` yielded a pIC50 [32] of 9.30, a pIC50 [33] of 8.30 and a pIC50 [34] of 9.30. For the same compound, the pIC50 (MDA-MB-231 [35]) was 7.92, the pIC50 [36] was 9.40 and the pIC50 (PC-3) was 8.03. For the same compound, the pIC50 [25] was 6.00.
